# Data as given in patent publication US11084783B2, “O-alkyl-benzylideneguanidine derivatives and therapeutic use for the treatment of disorders associated with an accumulation of misfolded proteins” (INFLECTIS BIOSCIENCE, priority 2014, dated 2021).
# Tests used:
# HeLa cells [1] = settings: tunicamycin, Tsaytler et al., Science 2011, cited from earlier work
# HeLa cells [2] = experiment: Cytoprotection from ER stress (tunicamycin), cell viability by WST-8; type: cell-based; set-up: key to Cytoprotection from ER stress compared to guanabenz: +: lower cytoprotective effect compared to Guanabenz; ++: similar cytoprotective effect compared to Guanabenz; +++: higher cytoprotective effect compared to Guanabenz; settings: HeLa cells, 6 hour exposure to tunicamycin 5 μg/mL, compounds 0.5-10 μM, viability 48 h or 72 h
# Description: Cytoprotection against ER stress can be measured by a suitable assay. For example, cytoprotection can be measured in HeLa cells in which ER stress is elicited by the addition of media containing tunicamycin, a mixture of homologous nucleoside antibiotics that inhibits the UDP-HexNAc: polyprenol-P HexNAc-1-P family of enzymes and is used to induce unfolded protein response. Cell viability can be detected in the presence and absence of inhibitor compounds after a set period of time, by measuring the reduction of WST-8 into formazan using a standard cell viability kit (such as Cell Viability Counting Kit-8 from Dojindo). Cytoprotection from ER stress is measured in terms of the percentage increase in viable cells (relative to control) after ER stress. Further details of a suitable assay are set forth in the accompanying Examples section.
# This assay is described in Tsaytler et al. (Science 2011). HeLa Cells were cultured in Eagle's Minimum Essential Medium (EMEM) supplemented with Glutamine, Sodium Pyruvate, Non-Essential Amino Acids, Penicillin and Streptomycin containing 10% Foetal Bovine Serum (FBS), at 37° C. in 5% CO2 atmosphere. Cells were plated in 96 well plates at a density of 17,000 cells/mL the day before the treatment. ER stress was elicited by addition of 5 μg/mL tunicamycin (Sigma-Aldrich) together with PPP1R15A inhibitors (0.5-10 μM). Media were changed 6h later with fresh media and the cytoprotection was maintained by the addition of PPP1R15A inhibitors (0.5-10 μM). Cell viability was assessed by measuring the reduction of WST-8 into formazan using Cell Counting Kit-8 (Sigma) according to the supplier's recommendation, 48 h or 72h after tunicamycin treatment. Cytoprotection from ER stress is measured in terms of cytoprotective potency effect compared to the reference compound Guanabenz (Tsaytler et al., Science 2011) after ER stress: • ‘+’ no cytoprotective effect; • ‘+’ lower cytoprotective effect compared to Guanabenz; • ‘++’ similar cytoprotective effect compared to Guanabenz; • ‘+++’ higher cytoprotective effect compared to Guanabenz.
# Table 1 summarizes the results of cytoprotective effect of different compounds of the invention, compared to guanabenz, after the stress induced by a 6 hour exposure of tunicamycin.
# human alpha2A receptor = molecular target: T1, human alpha2A receptor (Homo sapiens, UniProt P08913); experiment: Functional GPCR assay for adrenergic α2A receptor (CellKey detection method); type: cell-based; settings: agonist activity, CHO cells expressing human alpha2A receptor, impedance (CellKey); read-out: Functional adrenergic alpha2 receptor assay EC50
# T1 construct: CHO cells endogenously expressing human alpha2A receptor; endogenous in cells; host or cells: CHO cells
# T1 sequence (P08913 1-465): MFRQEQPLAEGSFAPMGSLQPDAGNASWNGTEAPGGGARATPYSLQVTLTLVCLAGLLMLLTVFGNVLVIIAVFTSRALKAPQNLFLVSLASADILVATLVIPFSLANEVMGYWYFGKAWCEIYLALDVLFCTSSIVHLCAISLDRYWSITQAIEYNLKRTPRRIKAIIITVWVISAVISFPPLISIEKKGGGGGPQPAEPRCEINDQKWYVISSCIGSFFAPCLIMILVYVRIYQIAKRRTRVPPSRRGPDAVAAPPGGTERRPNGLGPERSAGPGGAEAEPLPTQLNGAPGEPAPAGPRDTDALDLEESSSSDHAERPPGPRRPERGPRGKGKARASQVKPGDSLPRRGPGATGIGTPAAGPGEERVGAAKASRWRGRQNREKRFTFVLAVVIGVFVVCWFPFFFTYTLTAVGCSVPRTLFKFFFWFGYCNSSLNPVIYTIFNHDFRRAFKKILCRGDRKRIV
# Description: The agonist activity of compounds was evaluated on CHO cells […] expressing human alpha2A receptor and was determined by measuring their effects on impedance modulation using the CellKey detection method. Cells were seeded onto 96-well plate at density of 6×10^4 cells/well in HBSS buffer (Invitrogen)+20 mM HEPES (Invitrogen) with 0.1% BSA and are allowed to equilibrate for 60 min at 28° C. before the start of the experiment. Plates were placed onto the system and measurements were made at a temperature of 28° C. Solutions were added simultaneously to all 96 wells using an integrated fluidics system: HBSS (basal control), reference agonist at 100 nM (stimulated control), reference agonist (EC50 determination) or the test compounds. Impedance measurements are monitored for 10 minutes after ligand addition. The standard reference agonist is epinephrine, which is tested in each experiment at several concentrations to generate a concentration-response curve from which its EC50 value is calculated.
# Dose-response data from test compounds were analysed with Hill software using non-linear regression analysis of the concentration-response curves generated with mean replicate values using Hill equation curve fitting.
# Min6 cells = experiment: Protection against accumulation of misfold prone Insulin Akita; type: cell-based; settings: Min6 cells nucleofected with Insulin Akita, viability 9 days after treatment
# Description: Min6 cells were nucleofected with Insulin^Akita mutant constructs and seeded in 96 well-plates at 300,000 cells/mL and 24h later, cells were treated with molecules or left untreated. As a control, cells were nucleofected with non-relevant plasmid. 6 days later, a selective agent was added (G418). Cell viability was assessed by measuring the reduction of WST-8 into formazan using Cell Counting Kit-8 (Sigma) according to the supplier's recommendation, 9 days after treatment.
# Min6 insulinoma cell = experiment: Min6 cell line cytoprotection from ER stress (tunicamycin); type: cell-based; settings: 6 hour exposure to tunicamycin 2.5 μg/mL, different concentrations, viability 72h
# Description: (§1) Cells were plated in 96 well plates at a density of 0.5.10^6 cells/mL for Min6 cell line, 0,4.10^6 cells/mL for INS1 cell line the day before the treatment. ER stress was elicited by addition of 2.5 μg/mL tunicamycin (Sigma Aldrich) together with phosphatases inhibitors. Media were changed 6h later with fresh media and the cytoprotection was maintained by the addition of phosphatases inhibitors. Cell viability was assessed by measuring the reduction of WST-8 into formazan using Cell Counting Kit-8 (Sigma) according to the supplier's recommendation, 72h after tunicamycin treatment.
# INS1 insulinoma cell = experiment: INS1 cell line cytoprotection from ER stress (tunicamycin); type: cell-based; settings: 6 hour exposure to tunicamycin 2.5 μg/mL, different concentrations, viability 72h
# Description: as §1
# [3] = test system: mouse embryonic fibroblasts lipofected with poly I:C; experiment: In vitro inflammation/infection model: poly I:C induced mouse embryonic fibroblasts; type: cell-based; settings: 25 μM, 6h, IFN-beta ELISA in culture supernatants
# Description: Mouse Embryonic Fibroblasts (MEFs) were lipofected with poly I:C and treated with […] compounds of the invention (25 μM) for 6h. After 6h of culture, elF2alpha-phosphorylation (elF2a-P) and PPP1R15A (GADD34) expression was monitored by western blotting, while type-1 Interferon(IFN)-beta production was quantified in culture supernatants by ELISA. Control (nt) and poly I:C/DMSO are respectively negative and positive controls. Poly I:C (polyinosinic:polycytidylic acid or polyinosinic-polycytidylic acid sodium salt) is an immunostimulant used to simulate viral infections. Poly I:C which is structurally similar to double-stranded RNA, is known to interact with toll-like receptor 3 which is expressed in the intracellular compartments of B-cells and dendritic cells. Guanabenz (25 μM) was used as reference inhibitory compound.
# MEFs were cultured in DMEM, 10% FCS (HyClone, Perbio), 100 units/ml penicillin, 100 μg/ml streptomycin, 2 mM glutamine, 1× MEM non-essential amino acids and 50 μM 2-mercaptoethanol. MEFS were treated for the indicated time with 10 μg/ml poly I:C (InvivoGen) in combination with lipofectamine 2000 (Invitrogen).
# Cells were lysed in 1% Triton X-100, 50 mM Hepes, 10 mM NaCl, 2.5 mM MgCl2, 2 mM EDTA, 10% glycerol, supplemented with Complete Mini Protease Inhibitor Cocktail Tablets (Roche). Protein quantification was performed using the BCA Protein Assay (Pierce). 25-50 μg of Triton X-100-soluble material was loaded on 2%-12% gradient or 8% SDS-PAGE before immunoblotting and chemi-luminescence detection (SuperSignal West Pico Chemi-luminescent Substrate, Pierce). Rabbit polyclonal antibodies recognizing GADD34 (C-19) were from Santa Cruz Biotechnology and anti-elF2alpha[pS^52] were from Invitrogen.
# IFN-beta quantification in culture supernatant was performed using the Mouse Interferon Beta ELISA kit (PBL Interferon Source) according to manufacturer instructions.
# Normal response of MEFs to poly I:C is characterized by PPP1R15A expression, increase in elF2alpha-P (variable in time and related to the levels PPP1R15A expression) mediated by PKR activation and type-I IFN production (range 500 to 700 pg/ml). Knock out PPP1R15A MEFs are unable to produce this cytokine in response to poly I:C.
# The potency of compounds of the invention to inhibit PPP1R15A was evaluated by measuring the increase of elF2alpha phosphorylation, the decrease of PPP1R15A expression due to its own pharmacological inhibition resulting in general protein synthesis inhibition and type-I IFN production.
smiles,measurement,setting,value
CCC1(C2=NCCN2)Cc2ccccc2O1 (stereo not drawn) [efaroxan],protection of cells from cytotoxic ER stress,HeLa cells [1],"Neither the α2-adrenergic receptor agonist clonidine, nor the α2-adrenergic receptor antagonist efaroxan protected cells"
Clc1cccc(Cl)c1N=C1NCCN1 [clonidine],protection of cells from cytotoxic ER stress,HeLa cells [1],"Neither the α2-adrenergic receptor agonist clonidine, nor the α2-adrenergic receptor antagonist efaroxan protected cells"
"CCONC(=N)N/N=C/c1ccncc1Cl [Compound 16, 2-[(3-chloropyridin-4-yl)methylidene]-N-ethoxyhydrazinecarboximidamide]",Cytoprotection from ER stress compared to guanabenz,HeLa cells [2],+
same,EC50,human alpha2A receptor,> 33300 nM
same,prevention of cell death associated with accumulation of misfold prone Insulin Akita (FIG. 6),Min6 cells,prevent cell death
same,prevention of Min6 insulinoma cell death (FIG. 7),Min6 insulinoma cell,prevent Min6 insulinoma cell death
same,prevention of INS1 insulinoma cell death (FIG. 8),INS1 insulinoma cell,prevent INS1 insulinoma cell death
same,prevention of type-I IFN production (FIG. 9),[3],prevent type-I IFN production
"NC(N)=N/N=C/c1c(Cl)cccc1Cl [guanabenz, 2-(2,6-dichlorobenzylidene)hydrazinecarboximidamide]",EC50,"HeLa cells [1]; read-out: median effective concentration, survival of HeLa cells exposed to ER stress",~400 nM
